Measurements reported in PMC8245078, “Development of novel benzofuran-isatin conjugates as potential antiproliferative agents with apoptosis inducing mechanism in Colon cancer” (Journal of Enzyme Inhibition and Medicinal Chemistry, 2021).
Like-named read-outs stand apart in the source and are kept apart here.

How the values were obtained:
Experiment in all cases: NCI single dose screening (10 µM)
Assay type in all cases: cell-based
HT-29 = conditions: Homo sapiens; HT-29, Colon cancer, single dose 10^−5 M; read-out: GI% (cell growth inhibition percentage)
SNB-19 = conditions: Homo sapiens; SNB-19, CNS cancer, single dose 10^−5 M; read-out: GI% (cell growth inhibition percentage)
NCI-H460 = conditions: Homo sapiens; NCI-H460, Non-small cell lung cancer, single dose 10^−5 M; read-out: GI% (cell growth inhibition percentage)
NCI-H23 = conditions: Homo sapiens; NCI-H23, Non-small cell lung cancer, single dose 10^−5 M; read-out: GI% (cell growth inhibition percentage)
MALME-3M = conditions: Homo sapiens; MALME-3M, Melanoma, single dose 10^−5 M; read-out: GI% (cell growth inhibition percentage)
SN12C = conditions: Homo sapiens, Renal cancer, single dose 10^−5 M, read-out: GI% (cell growth inhibition percentage)
SF-295 = conditions: Homo sapiens; SF-295, CNS cancer, single dose 10^−5 M; read-out: GI% (cell growth inhibition percentage)
UO-31 = conditions: Homo sapiens; UO-31, Renal cancer, single dose 10^−5 M; read-out: GI% (cell growth inhibition percentage)
K-562 = conditions: Homo sapiens, K562; K-562, Leukaemia, single dose 10^−5 M; read-out: GI% (cell growth inhibition percentage)
MDA-MB-468 = conditions: Homo sapiens; MDA-MB-468, Breast cancer, single dose 10^−5 M; read-out: GI% (cell growth inhibition percentage)
PC-3 = conditions: Homo sapiens; PC-3, Prostate cancer, single dose 10^−5 M; read-out: GI% (cell growth inhibition percentage)
NCI-H522 = conditions: Homo sapiens; NCI-H522, Non-small cell lung cancer, single dose 10^−5 M; read-out: GI% (cell growth inhibition percentage)
MOLT-4 = conditions: Homo sapiens; MOLT-4, Leukaemia, single dose 10^−5 M; read-out: GI% (cell growth inhibition percentage)
ACHN = conditions: Homo sapiens, Renal cancer, single dose 10^−5 M, read-out: GI% (cell growth inhibition percentage)
M14 = conditions: Homo sapiens; M14, Melanoma, single dose 10^−5 M; read-out: GI% (cell growth inhibition percentage)
SW-620 = conditions: Homo sapiens; SW-620, Colon cancer, single dose 10^−5 M; read-out: GI% (cell growth inhibition percentage)
U251 = conditions: Homo sapiens, U-251; U251, CNS cancer, single dose 10^−5 M; read-out: GI% (cell growth inhibition percentage)
CAKI-1 = conditions: Homo sapiens; CAKI-1, Renal cancer, single dose 10^−5 M; read-out: GI% (cell growth inhibition percentage)
HS 578 T = conditions: Homo sapiens; HS 578 T, Breast cancer, single dose 10^−5 M; read-out: GI% (cell growth inhibition percentage)
EKVX = conditions: Homo sapiens, Non-small cell lung cancer, single dose 10^−5 M, read-out: GI% (cell growth inhibition percentage)
HL-60(TB) = conditions: Homo sapiens
786-0 = conditions: Homo sapiens; 786-0, Renal cancer, single dose 10^−5 M; read-out: GI% (cell growth inhibition percentage)
HCC-2998 = conditions: Homo sapiens; HCC-2998, Colon cancer, single dose 10^−5 M; read-out: GI% (cell growth inhibition percentage)
SK-MEL-28 = conditions: Homo sapiens; SK-MEL-28, Melanoma, single dose 10^−5 M; read-out: GI% (cell growth inhibition percentage)
NCI/ADR-RES = conditions: Homo sapiens, Ovarian cancer, single dose 10^−5 M, read-out: GI% (cell growth inhibition percentage)
CCRF-CEM = conditions: Homo sapiens, Leukaemia, single dose 10^−5 M, read-out: GI% (cell growth inhibition percentage)
HCT-15 = conditions: Homo sapiens; HCT-15, Colon cancer, single dose 10^−5 M; read-out: GI% (cell growth inhibition percentage)
HCT-116 = conditions: Homo sapiens; HCT-116, Colon cancer, single dose 10^−5 M; read-out: GI% (cell growth inhibition percentage)
DU-145 = conditions: Homo sapiens; DU-145, Prostate cancer, single dose 10^−5 M; read-out: GI% (cell growth inhibition percentage)
TK-10 = conditions: Homo sapiens; TK-10, Renal cancer, single dose 10^−5 M; read-out: GI% (cell growth inhibition percentage)
A549/ATCC = conditions: Homo sapiens; A549/ATCC, Non-small cell lung cancer, single dose 10^−5 M; read-out: GI% (cell growth inhibition percentage)
T-47D = conditions: Homo sapiens, T47D; T-47D, Breast cancer, single dose 10^−5 M; read-out: GI% (cell growth inhibition percentage)

| Structure (SMILES) | inhibition at 10 µM (HT-29) | inhibition at 10 µM (SNB-19) | inhibition at 10 µM (NCI-H460) | inhibition at 10 µM (NCI-H23) | inhibition at 10 µM (MALME-3M) | inhibition at 10 µM (SN12C) | inhibition at 10 µM (SF-295) | inhibition at 10 µM (UO-31) | inhibition at 10 µM (K-562) | inhibition at 10 µM (MDA-MB-468) | inhibition at 10 µM (PC-3) | inhibition at 10 µM (NCI-H522) | inhibition at 10 µM (MOLT-4) | inhibition at 10 µM (ACHN) | inhibition at 10 µM (M14) | inhibition at 10 µM (SW-620) | inhibition at 10 µM (U251) | inhibition at 10 µM (CAKI-1) | inhibition at 10 µM (HS 578 T) | inhibition at 10 µM (EKVX) | further results |
| --- | --- | --- | --- | --- | --- | --- | --- | --- | --- | --- | --- | --- | --- | --- | --- | --- | --- | --- | --- | --- | --- |
| Cc1c(C(=O)N/N=C2\C(=O)N(C)c3ccccc32)oc2ccccc12 [Compound 7a] | < 10% | < 10% | < 10% | < 10% | < 10% | < 10% | 11.8% | < 10% | < 10% | < 10% | < 10% | < 10% | < 10% | < 10% | < 10% | 30.6% | < 10% | 19.4% | < 10% | 25.1% | inhibition at 10 µM (HL-60(TB); HL-60(TB), Leukaemia, single dose 10^−5 M, read-out: GI% (cell growth inhibition percentage)): < 10%; inhibition at 10 µM (786-0): < 10%; inhibition at 10 µM (HCC-2998): < 10%; inhibition at 10 µM (SK-MEL-28): < 10%; inhibition at 10 µM (NCI/ADR-RES): < 10%; inhibition at 10 µM (CCRF-CEM): < 10%; inhibition at 10 µM (HCT-15): < 10%; inhibition at 10 µM (HCT-116): < 10%; inhibition at 10 µM (DU-145): < 10%; inhibition at 10 µM (TK-10): < 10%; inhibition at 10 µM (A549/ATCC): < 10%; inhibition at 10 µM (T-47D): 21.8% |
| COc1ccc2c(c1)/C(=N/NC(=O)c1oc3ccccc3c1C)C(=O)N2 [Compound 5d] | 72.7% | 57.3% | 123% | 89.3% | 129% | 65.1% | 95% | 155% | 57.5% | 80.1% | 78.2% | 45.7% | 49.1% | 151% | 71.3% | 64.8% | 98% | 152% | 74.5% | 62.7% | inhibition at 10 µM (HL-60(TB); HL-60, read-out: GI% (cell growth inhibition percentage)): 46.1%; inhibition at 10 µM (786-0): 167%; inhibition at 10 µM (HCC-2998): 56.5%; inhibition at 10 µM (SK-MEL-28): 84.2%; inhibition at 10 µM (NCI/ADR-RES): 69.5%; inhibition at 10 µM (CCRF-CEM): 42.9%; inhibition at 10 µM (HCT-15): 50.9%; inhibition at 10 µM (HCT-116): 129%; inhibition at 10 µM (DU-145): 82.4%; inhibition at 10 µM (TK-10): 194%; inhibition at 10 µM (A549/ATCC): 124%; inhibition at 10 µM (T-47D): 139% |
